{"source": "patent US20090106856A1", "about": "“Selection System for Wheat” (BASF PLANT SCIENCE GMBH, priority 2005, published 2009)", "key": {"[1]": {"tested_on": "Transgenic T1 dao1 seedlings", "experiment": "Negative selection of transgenic T1 dao1 seedlings", "assay_type": "in vivo, Triticum aestivum", "procedure": "T1 immature embryos were assayed with bioassay for germination of immature embryos on selection. […] Furthermore transgenic T1 seedlings were tested for negative selection using D-isoleucine and D-valine containing medium. Transgenic T1 dao1 seedlings were sensitive to the concentrations range from 10 to 30 mM D-isoleucine and 15-20 mM D-valine (FIG. 11)."}, "[2]": {"tested_on": "wheat variety Canon immature embryos / embryogenic callus", "experiment": "Agrobacterium-mediated transformation with dsdA constructs and selection of transgenic plants", "assay_type": "cell-based, Triticum aestivum", "procedure": "(§1) Explants were washed with PAW-Inf. medium and immersed in the above-described bacterial suspension for 2 h at 26° C. At the end of infection the explants were placed with scutellum side up on PAW-1 medium. The residual bacterial suspension is removed by pipeting out and air-drying of the infected embryos by opening plates for 15 min on the sterile banch. Plates were sealed with Parafilm and placed in thermostat at 26° C. in the dark for 5-6 days co-cultivation.\n(§2) After co-cultivation period the explants were washed with sterile water and 500 mg/L Cefotaxime and filter paper dried before being transferred to PAW-2 callus induction-recovery medium containing 160 mg/l Timentin for 14 days (7 days dark/7 days semi light; 13.2 μmol m^−2s^−1). Explants with embryogenic callus were subculture to PAW-2 callus-proliferation medium containing 160 mg/l Timentin and corresponding selection 5 mM D-serine or 5 mM D-alanine or 3 mg/l bialaphos. In some experiments the selection on D-amino acids was starting on PAW-2 callus induction medium 0, 7, 14 and 21 days after co cultivation. Embryogenic callus was subculture twice on fresh selective medium for callus maintaining and regeneration on PAW-4 medium with corresponding selection. Cultures were maintained at 23° C. on light 60.2 μmol m^−2s^−1. Regenerated shoots were subculture to PAW-5 hormone free medium with corresponding selection (5 mM D-serine or 5 mM D-alanine or 3 mg/l bialaphos) for further growth and rooting. All media used in the transformation experiments were filter sterilized and are listed in above. After analyses transgenic plants were transferred to soil and placed for further growth in greenhouse. 1.4 Molecular and expression studies of the transgenic plants\nFreshly isolated immature embryos from Canon were inoculated with Agrobacterium. In all experiments Agrobacterium tumefacience LBA4404 (pSB1/pRLM167) (SEQ ID NO: 11) was used. The pRLM167 is a super binary vector containing p-ZmUBI+I::c-dsdA::t-OCS and p-ZmUBI+I::c-PAT::t-OCS selectable marker genes in expression cassettes (FIG. 1). Following co cultivation the explants were given a chance to recover for 14 days on callus induction selection free medium containing 160 mg/l Timentin to inhibit bacterial growth. Under these conditions 59% to 76% of the embryogenic callus developed over the all surface of immature embryos. Embryogenic callus was split in two and transferred to two the corresponding selection medium containing 5-mM D-serine or 3 mg/l bialaphos. During subsequent growth of callus, regeneration of plantlets, shoots elongation and roots formation the respective selection pressure was maintained in each of the corresponding medium. After 7 weeks of selection 38%-47% of the embryogenic calli regenerated with plants when selected on bialaphos or on D-serine respectively. Further selection of the regenerants was performed during the elongation and rooting of the regenerants for an additional 3 weeks. Intact in vitro transgenic shoots were selected within 10-12 weeks after co cultivation.\nFreshly isolated immature embryos from Canon were inoculated with Agrobacterium. In all experiments Agrobacterium tumefacience super binary vector system based on LBA4404 (pSB1) was used. The constructs pRLM179, pRLM166, pRLM151 (FIG. 2. I, II and III) containing dsdA selectable marker gene alone or with a second gene (ahas or gusINT) were used for transformation. The explants were cultured on selection medium right away after co-cultivation with Agrobacterium or were cultivated on callus induction—recovery medium for 7, 14 and 21 days containing only 160 mg/l Timentin for inhibiting bacterial growth. Furthermore calli were sub cultured to fresh selection PAW-2 medium for proliferation. Embryogenic calli were transferred on PAW-4 selection medium for regeneration 5-6 weeks after transformation. The emerging plantlets were further grown and rooted on PAW-5 hormone free selection medium. […]"}, "[3]": {"tested_on": "wheat variety Canon immature embryos / embryogenic callus", "experiment": "Agrobacterium-mediated transformation with dao1 constructs and selection of transgenic plants", "assay_type": "cell-based, Triticum aestivum", "conditions": "pRLM205 (dao1 original), 5 mM selection", "procedure": "as §1, §2\nFreshly isolated immature embryos from Canon were inoculated with Agrobacterium. In all experiments Agrobacterium tumefactions super binary vector system based on LBA4404 (pSB1) was used. The constructs pRLM205 containing the original dao1 gene and pRLM226 carrying modified Daol. Both constructs contain gusINT reporter marker gene (FIGS. 3, I and II). Following co cultivation the explants were transferred on callus induction PAW-2 selection free medium containing 160 mg/l Timentin to inhibit bacterial growth for 14 days. For selection embryogenic callus was transferred to PAW-2 selection medium containing 5 mM D-serine or 5 mM D-alanine respectively. Furthermore calli were sub cultured to fresh corresponding selection PAW-2 medium for maintaining. Embryogenic calli were trans-ferred on PAW-4 selection medium for regeneration 5-6 weeks after transformation. The emerging plantlets were further grown and rooted on PAW-5 hormone free selection medium. Well-developed and rooted on selection putative transgenic regenerants were selected in vitro within. When D-alanine was used as selection compound similar effects in callus growth, shoots regeneration and rooting of transgenic plants or non transgenic escapes selected on D-serine was observed. Both selection agents resulted with 1.1% to 1.2% transformation efficiency and no escape rate (Table 9)."}, "wheat in vitro shoots": {"tested_on": "wheat in vitro shoots", "experiment": "Killing curve: rooting of in vitro shoots", "assay_type": "in vivo, Triticum aestivum", "excerpt": "[…] The effect of selection agents was observed two and tree weeks later. Number of plantlets with growing roots and green leaves were scored.\nIn vitro regenerated shoots from media lacking the selection compounds were collected and transferred on medium for rooting (½ MS salts hormone free). Roots formation, growth of the shoots and leaves elongation was scored two and four weeks later after sub culturing of these shoots to the medium supplemented with D-amino acids (Table 5)."}, "wheat callus": {"tested_on": "wheat callus", "experiment": "Killing curve: callus growth and regeneration under constant selection pressure", "assay_type": "cell-based, Triticum aestivum", "procedure": "To define the sensitivity of wheat tissues during transformation when D-Serine and D-Alanine are present as selection agents regeneration experiments with immature embryos were designed. Immature embryos were immersed in PAWinf medium and subjected to all steps of callus induction, callus maintaining and regeneration in transformation protocol above.\nSensitivity of callus tissue under constant selection pressure were evaluated using range of concentrations: 0.5 mM, 1 mM, 3 mM, 5 mM, 10 mM, 25 mM, 50 mM. Experiments were performed in triplicates. Percentage of embryos forming embryos-genic callus was scored on PAW-4 regeneration medium. At the end of shoots elongation regeneration capacity of the calluses was scored as calluses regenerating shoots and number of shoots per callus.\nRange of the tested concentrations 0.5-50 mM D-ser and D-ala are evaluated in replicating regeneration experiments. The effect of selective compounds is estimated during callus growth and shoots formation following transformation procedure on medium with D-serine and D-alanine (Table 4)."}, "wheat immature embryos": {"tested_on": "wheat immature embryos", "experiment": "Killing curve: in vitro germination of immature embryos and seedling growth", "assay_type": "in vivo, Triticum aestivum", "procedure": "In order to establish effective concentrations of D-serine and D-alanine on inhibiting growth of tissue cultured wheat cells, a bioassay system using immature embryos was applied. Immature embryos 2 mm in length were dissected onto germination medium with the selection agents, and incubated at 27° C. in light. The number of germinated embryos with well-developed shoots and brunched shoots were scored after 14 days.\nImmature embryos 2 mm in size were isolated from the sterilized caryopses. The embryos were cultured on PAW-5 hormone free medium for germination in dark. Seedlings growth on D-amino acid selection was observed after 2 weeks. Most of the embryos germinated but the seedlings growth was inhibited when roots emerge and the uptake of the selection compound was direct from the medium. The Lethal Dose (LD 100) for seedlings germination and growth was 1 mM concentration of both D-amino acids tested (Table 6). Seedlings derived from embryos isolated from the immature caryopsis without endosperms were susceptible to the selection in concentration higher than 1 mM (FIG. 8)."}, "[4]": {"conditions": "construct pRLM167 (dsdA/pat), selection on 5 mM D-serine or 3 mg/l bialaphos"}}}
{"smiles": "CC(C)[C@@H](N)C(=O)O", "note": "[D-valine]", "values": [{"measurement": "concentration range to which seedlings were sensitive (negative selection)", "setting": "[1]", "value": "15 to 20", "unit": "mM"}]}
{"smiles": "C[C@H](NC(=O)[C@H](C)NC(=O)[C@@H](N)CCP(C)(=O)O)C(=O)O", "note": "[bialaphos]", "values": [{"measurement": "ER Escape Rate (% of non-transgenic regenerants out of all selected plants)", "setting": "[2]; [4]", "value": 59, "unit": "%"}, {"measurement": "TE Transformation Efficiency (% of transgenic plants out of the explants)", "setting": "[2]; [4]", "value": 2.1, "unit": "%"}, {"measurement": "embryogenic calli regenerated with plants", "setting": "[2]; pRLM167, after 7 weeks of selection, 5 mM D-serine or 3 mg/l bialaphos", "value": 38, "unit": "%"}]}
{"smiles": "C[C@@H](N)C(=O)O", "note": "[D-alanine]", "values": [{"measurement": "ER (%) Escape Rate", "setting": "[3]", "value": 0, "unit": "%"}, {"measurement": "TE (%) Transformation Efficiency", "setting": "[3]", "value": 1.27, "unit": "%"}, {"measurement": "root formation of non-transgenic shoots", "setting": "wheat in vitro shoots; 5 mM", "value": "not able to form roots"}, {"measurement": "Rooted Shoots (%)", "setting": "wheat in vitro shoots; Bobwhite, 1 mM", "value": 34, "unit": "%"}, {"measurement": "Rooted Shoots (%)", "setting": "wheat in vitro shoots; Bobwhite, 3 mM", "value": 13, "unit": "%"}, {"measurement": "Rooted Shoots (%)", "setting": "wheat in vitro shoots; Bobwhite, 5 mM", "value": 1, "unit": "%"}, {"measurement": "Rooted Shoots (%)", "setting": "wheat in vitro shoots; Bobwhite, 10 mM", "value": 0, "unit": "%"}, {"measurement": "Rooted Shoots (%)", "setting": "wheat in vitro shoots; Bobwhite, 15 mM", "value": 0, "unit": "%"}, {"measurement": "Rooted Shoots (%)", "setting": "wheat in vitro shoots; Bobwhite, 25 mM", "value": 0, "unit": "%"}, {"measurement": "Rooted Shoots (%)", "setting": "wheat in vitro shoots; Canon, 1 mM", "value": 36, "unit": "%"}, {"measurement": "Rooted Shoots (%)", "setting": "wheat in vitro shoots; Canon, 3 mM", "value": 11, "unit": "%"}, {"measurement": "Rooted Shoots (%)", "setting": "wheat in vitro shoots; Canon, 5 mM", "value": 1, "unit": "%"}, {"measurement": "Rooted Shoots (%)", "setting": "wheat in vitro shoots; Canon, 10 mM", "value": 0, "unit": "%"}, {"measurement": "Rooted Shoots (%)", "setting": "wheat in vitro shoots; Canon, 15 mM", "value": 0, "unit": "%"}, {"measurement": "Rooted Shoots (%)", "setting": "wheat in vitro shoots; Canon, 25 mM", "value": 0, "unit": "%"}, {"measurement": "Regeneration capacity of the calli reduced", "setting": "wheat callus; 5 mM", "value": 70, "unit": "%"}, {"measurement": "Regenerated Embryogenic Lines (%)", "setting": "wheat callus; Bobwhite, 0.5 mM", "value": 85, "unit": "%"}, {"measurement": "Regenerated Embryogenic Lines (%)", "setting": "wheat callus; Bobwhite, 3 mM", "value": 52, "unit": "%"}, {"measurement": "Regenerated Embryogenic Lines (%)", "setting": "wheat callus; Bobwhite, 5 mM", "value": 14, "unit": "%"}, {"measurement": "Regenerated Embryogenic Lines (%)", "setting": "wheat callus; Bobwhite, 10 mM", "value": 4, "unit": "%"}, {"measurement": "Regenerated Embryogenic Lines (%)", "setting": "wheat callus; Bobwhite, 15 mM", "value": 0, "unit": "%"}, {"measurement": "Regenerated Embryogenic Lines (%)", "setting": "wheat callus; Bobwhite, 25 mM", "value": 0, "unit": "%"}, {"measurement": "Regenerated Embryogenic Lines (%)", "setting": "wheat callus; Bobwhite, 50 mM", "value": 0, "unit": "%"}, {"measurement": "Regenerated Embryogenic Lines (%)", "setting": "wheat callus; Canon, 0.5 mM", "value": 63, "unit": "%"}, {"measurement": "Regenerated Embryogenic Lines (%)", "setting": "wheat callus; Canon, 3 mM", "value": 44, "unit": "%"}, {"measurement": "Regenerated Embryogenic Lines (%)", "setting": "wheat callus; Canon, 5 mM", "value": 19, "unit": "%"}, {"measurement": "Regenerated Embryogenic Lines (%)", "setting": "wheat callus; Canon, 10 mM", "value": 3, "unit": "%"}, {"measurement": "Regenerated Embryogenic Lines (%)", "setting": "wheat callus; Canon, 15 mM", "value": 0, "unit": "%"}, {"measurement": "Regenerated Embryogenic Lines (%)", "setting": "wheat callus; Canon, 25 mM", "value": 0, "unit": "%"}, {"measurement": "Regenerated Embryogenic Lines (%)", "setting": "wheat callus; Canon, 50 mM", "value": 0, "unit": "%"}, {"measurement": "lethal dose (LD 100) for regeneration response of callus", "setting": "wheat callus; tested in both varieties", "value": 15, "unit": "mM"}, {"measurement": "In vitro germination, Immature Embryos (%)", "setting": "wheat immature embryos; Bobwhite, 0.5 mM", "value": 56, "unit": "%"}, {"measurement": "In vitro germination, Immature Embryos (%)", "setting": "wheat immature embryos; Bobwhite, 1 mM", "value": 0, "unit": "%"}, {"measurement": "In vitro germination, Immature Embryos (%)", "setting": "wheat immature embryos; Bobwhite, 5 mM", "value": 0, "unit": "%"}, {"measurement": "In vitro germination, Immature Embryos (%)", "setting": "wheat immature embryos; Bobwhite, 10 mM", "value": 0, "unit": "%"}, {"measurement": "In vitro germination, Immature Embryos (%)", "setting": "wheat immature embryos; Canon, 0.5 mM", "value": 40, "unit": "%"}, {"measurement": "In vitro germination, Immature Embryos (%)", "setting": "wheat immature embryos; Canon, 1 mM", "value": 0, "unit": "%"}, {"measurement": "In vitro germination, Immature Embryos (%)", "setting": "wheat immature embryos; Canon, 5 mM", "value": 0, "unit": "%"}, {"measurement": "In vitro germination, Immature Embryos (%)", "setting": "wheat immature embryos; Canon, 10 mM", "value": 0, "unit": "%"}]}
